How the values were obtained:
Type in all cases: cell membranes
[1] = target: T1, Serotonin 3 (5-HT3) receptor (Rattus norvegicus, UniProt P35563+Q9JJ16); assay: Binding affinity against 5-hydroxytryptamine 3 receptor in rat cortical membrane using [3H]GR-65630 as radioligand
T1 sequence (P35563 whole entry): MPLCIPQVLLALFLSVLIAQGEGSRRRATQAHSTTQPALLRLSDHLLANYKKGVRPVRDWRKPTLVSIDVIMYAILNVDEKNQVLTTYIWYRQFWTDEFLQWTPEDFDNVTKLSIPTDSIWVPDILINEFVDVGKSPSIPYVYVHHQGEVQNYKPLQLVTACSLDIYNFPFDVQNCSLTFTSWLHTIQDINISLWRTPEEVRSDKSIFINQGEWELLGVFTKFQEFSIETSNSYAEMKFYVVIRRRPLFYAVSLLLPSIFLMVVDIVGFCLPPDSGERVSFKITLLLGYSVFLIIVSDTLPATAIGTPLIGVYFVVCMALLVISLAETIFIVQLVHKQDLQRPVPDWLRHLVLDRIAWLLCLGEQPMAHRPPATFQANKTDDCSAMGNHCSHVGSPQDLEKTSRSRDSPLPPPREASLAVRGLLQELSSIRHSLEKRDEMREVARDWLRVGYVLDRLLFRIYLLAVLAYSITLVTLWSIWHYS
T1 sequence (Q9JJ16 whole entry): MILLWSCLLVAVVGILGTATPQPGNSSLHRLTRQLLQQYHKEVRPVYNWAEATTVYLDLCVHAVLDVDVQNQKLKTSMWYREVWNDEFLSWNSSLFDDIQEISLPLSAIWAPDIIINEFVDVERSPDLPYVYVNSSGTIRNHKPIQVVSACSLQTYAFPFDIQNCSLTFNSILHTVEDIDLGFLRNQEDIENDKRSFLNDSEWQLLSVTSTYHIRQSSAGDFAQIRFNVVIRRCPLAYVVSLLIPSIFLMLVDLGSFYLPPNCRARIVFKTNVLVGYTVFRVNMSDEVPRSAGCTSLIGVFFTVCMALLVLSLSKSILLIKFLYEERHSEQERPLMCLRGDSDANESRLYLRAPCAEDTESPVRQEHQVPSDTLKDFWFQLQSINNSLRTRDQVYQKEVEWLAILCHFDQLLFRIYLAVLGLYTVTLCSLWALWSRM

D(2) dopamine receptor [2] = target: T2, D(2) dopamine receptor (Rattus norvegicus, UniProt P61169); assay: Binding affinity against dopamine D2 receptor in rat brain synaptic membrane using [3H]-spiperone as radioligand
D(2) dopamine receptor [3] = target: T2, D(2) dopamine receptor; assay: Compound was tested for binding affinity against Dopamine receptor D2 in rat brain synaptic membrane using [3H]-spiperone as radioligand

T2 sequence (P61169 whole entry): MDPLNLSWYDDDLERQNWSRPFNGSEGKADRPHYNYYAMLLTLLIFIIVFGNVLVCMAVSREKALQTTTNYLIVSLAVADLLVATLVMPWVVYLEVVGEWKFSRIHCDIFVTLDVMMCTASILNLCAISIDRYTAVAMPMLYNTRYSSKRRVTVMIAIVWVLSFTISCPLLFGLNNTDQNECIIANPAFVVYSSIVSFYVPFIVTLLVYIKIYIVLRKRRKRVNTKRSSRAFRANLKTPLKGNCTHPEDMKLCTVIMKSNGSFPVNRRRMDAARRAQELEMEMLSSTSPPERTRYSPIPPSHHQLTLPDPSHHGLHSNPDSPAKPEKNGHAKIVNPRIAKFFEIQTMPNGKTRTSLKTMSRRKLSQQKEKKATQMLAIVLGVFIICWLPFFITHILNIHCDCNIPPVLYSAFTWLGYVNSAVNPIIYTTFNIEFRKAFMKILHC

IC50 [1] [nM]	IC50 (D(2) dopamine receptor [2]) [nM]	IC50 (D(2) dopamine receptor [3]) [nM]	Structure (SMILES)
10	> 1000		CCN1CCCC[C@H](NC(=O)c2cc(Cl)c(N)cc2OC)C1
8.5	127		CCN1CCN(C)CC(NC(=O)c2cc(Cl)c(N)cc2OC)C1 (stereo unspecified)
12	87		CCN1CCN(C)C[C@@H](NC(=O)c2cc(Cl)c(N)cc2OC)C1
97	4.5		CCN1CCCC[C@@H](NC(=O)c2cc(Cl)c(NC)cc2OC)C1
1.9	181		CCNc1cc(OC)c(C(=O)NC2CN(C)CCN(CC)C2)cc1Cl (stereo unspecified)
50	25		CCNc1cc(OC)c(C(=O)NC2CCCCN(CC)C2)cc1Cl (stereo unspecified)
24	218		CCCN1CCN(C)CC(NC(=O)c2cc(Cl)c(N)cc2OC)C1 (stereo unspecified)
36			COc1cc(N)c(Cl)cc1C(=O)NC1CCCCN(C)C1 (stereo unspecified)
37	57		CCCN1CCCCC(NC(=O)c2cc(Cl)c(N)cc2OC)C1 (stereo unspecified)
	> 1000		Cc1nccn1CC1CCc2c(c3ccccc3n2C)C1=O (stereo unspecified) [ONDANSETRON]
1.5	320		CCN1CCN(C)C[C@H](NC(=O)c2cc(Cl)c(NC)cc2OC)C1
33	39		CCN1CCCCC(NC(=O)c2cc(Cl)c(N)cc2OC)C1 (stereo unspecified)
7	517		CCN1CCN(C)C[C@H](NC(=O)c2cc(Cl)c(N)cc2OC)C1
4.8	61		CCN1CCN(C)CC(NC(=O)c2cc(Cl)c(NC)cc2OC)C1 (stereo unspecified)
9.6		> 1000	COc1cc(N)c(Cl)cc1C(=O)NC1CN(C)CCN(C)C1
640	87		COc1cc(N)c(Cl)cc1C(=O)NC1CCCCN(C(C)C)C1 (stereo unspecified)
134	19		CCN1CCCC[C@@H](NC(=O)c2cc(Cl)c(N)cc2OC)C1
6.6	11		CCN1CCCCC(NC(=O)c2cc(Cl)c(NC)cc2OC)C1 (stereo unspecified)
4.5	367		CCN1CCCC[C@H](NC(=O)c2cc(Cl)c(NC)cc2OC)C1

Reference: ChEMBL document CHEMBL1131649, “A novel series of N-(hexahydro-1,4-diazepin-6-yl) and N-(hexahydroazepin- 3-yl)benzamides with high affinity for 5-HT3 and dopamine D2 receptors” (Bioorg Med Chem Lett, 1998)
